Laboratory results reported in PubChem BioAssay AID330 (DTP/NCI, 2004).
Where “and” joins values, the source holds several entries; their conditions need not be identical. Equal values may be shown once. Toxic doses and inconclusive results are not listed. Peptide text beside a SMILES is read from it.

Test system: P388 leukemia ip, CD2F1 mice, survival T/C
Assay: NCI In Vivo Anticancer Drug Screen. Data for tumor model P388 Leukemia (intraperitoneal) in CD2F1 (CDF1) mice
Settings: endpoint: median survival time, higher = longer survival
How it was run: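 Mice carrying the transplanted tumor received test compound or vehicle. Survival was recorded in each group, and the value is the treated-group measurement divided by that of the vehicle-treated control group.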

[1] = dose: 50.0 mg/kg/injection, schedule: Q01DX009 (ip), vehicle: saline
[2] = dose: 50.0 mg/kg/injection, schedule: Q01DX005 (ip), vehicle: Klucel (hydroxypropylcellulose) (HPC)
[3] = dose: 100.0 mg/kg/injection, schedule: Q01DX005 (ip), vehicle: Klucel (hydroxypropylcellulose) (HPC)
[4] = dose: 200.0 mg/kg/injection, schedule: Q01DX005 (ip), vehicle: Klucel (hydroxypropylcellulose) (HPC)
[5] = dose: 60.0 mg/kg/injection, schedule: Q01DX005 (ip), vehicle: saline with Tween-80
[6] = dose: 120.0 mg/kg/injection, schedule: Q01DX005 (ip), vehicle: saline with Tween-80
[7] = dose: 240.0 mg/kg/injection, schedule: Q01DX005 (ip), vehicle: saline with Tween-80
[8] = dose: 50.0 mg/kg/injection, schedule: Q01DX001 (ip), vehicle: Klucel (hydroxypropylcellulose) (HPC)
[9] = dose: 100.0 mg/kg/injection, schedule: Q01DX001 (ip), vehicle: Klucel (hydroxypropylcellulose) (HPC)
[10] = dose: 12.5 mg/kg/injection, schedule: Q01DX009 (ip), vehicle: saline
[11] = dose: 50.0 mg/kg/injection, schedule: Q01DX005 (ip), vehicle: saline with Tween-80
[12] = dose: 100.0 mg/kg/injection, schedule: Q01DX005 (ip), vehicle: saline with Tween-80
[13] = dose: 200.0 mg/kg/injection, schedule: Q01DX005 (ip), vehicle: saline with Tween-80

O=C1C=CN(C2OC(CO)C(O)C2O)C(=O)C1 (stereo unspecified)
T/C (dose: 11.0 mg/kg/injection, schedule: Q01DX009 (ip), vehicle: saline): 117 % of control | T/C (dose: 16.0 mg/kg/injection, schedule: Q01DX009 (ip), vehicle: saline): 122 % of control | T/C (dose: 22.0 mg/kg/injection, schedule: Q01DX009 (ip), vehicle: saline): 120 % of control and 122 % of control and 124 % of control | T/C (dose: 33.0 mg/kg/injection, schedule: Q01DX009 (ip), vehicle: saline): 109 % of control and 119 % of control and 120 % of control | T/C [1]: 118 % of control and 124 % of control

CCC1(C)C(C#N)C(=O)NC(=O)C1C#N (stereo unspecified)
T/C (dose: 25.0 mg/kg/injection, schedule: Q01DX009 (ip), vehicle: saline with Tween-80): 95 % of control | T/C (dose: 50.0 mg/kg/injection, schedule: Q01DX009 (ip), vehicle: saline with Tween-80): 95 % of control

CCOC(=O)c1cnc(=O)[nH]c1C(=O)OCC
T/C [2]: 91 % of control | T/C [3]: 100 % of control | T/C [4]: 99 % of control

O=C(O)c1ccc[c]([Sb]2(=[O])[O]C(CO)C(C(O)C(O)C(=O)O)[O]2)c1 (stereo unspecified)
T/C (dose: 50.0 mg/kg/injection, schedule: Q01DX005 (ip), vehicle: saline): 100 % of control | T/C (dose: 100.0 mg/kg/injection, schedule: Q01DX005 (ip), vehicle: saline): 100 % of control | T/C (dose: 200.0 mg/kg/injection, schedule: Q01DX005 (ip), vehicle: saline): 104 % of control

Nc1ncc2c(n1)-c1ccccc1OC2
T/C [5]: 92 % of control | T/C [6]: 103 % of control | T/C [7]: 95 % of control

CC(C)(C)[Si](C)(C)OCc1ccccc1N1C(=O)C(N=[N+]=[N-])C1/C=C/c1ccccc1 (stereo unspecified)
T/C (dose: 6.25 mg/kg/injection, schedule: Q01DX001 (ip), vehicle: Klucel (hydroxypropylcellulose) (HPC)): 101 % of control | T/C (dose: 12.5 mg/kg/injection, schedule: Q01DX001 (ip), vehicle: Klucel (hydroxypropylcellulose) (HPC)): 103 % of control | T/C (dose: 25.0 mg/kg/injection, schedule: Q01DX001 (ip), vehicle: Klucel (hydroxypropylcellulose) (HPC)): 94 % of control | T/C [8]: 101 % of control | T/C [9]: 98 % of control | T/C (dose: 400.0 mg/kg/injection, schedule: Q01DX001 (ip), vehicle: saline with Tween-80): 89 % of control

CC(=O)OCCn1c2ccccc2nc2cc3c(cc21)c(Cl)c(=O)c1ccccc13
T/C (dose: 50.0 mg/kg/injection, schedule: Q04DX003 (ip), vehicle: saline with Tween-80): 96 % of control | T/C (dose: 100.0 mg/kg/injection, schedule: Q04DX003 (ip), vehicle: saline with Tween-80): 100 % of control | T/C (dose: 200.0 mg/kg/injection, schedule: Q04DX003 (ip), vehicle: saline with Tween-80): 100 % of control

CC1(C2(C)CC2(Br)Br)CC1(Br)Br (stereo unspecified)
T/C [2]: 101 % of control | T/C [3]: 102 % of control | T/C [4]: 114 % of control

Cc1ccc(S(=O)(=O)N=S(=O)(CCCl)CCCl)cc1
T/C (dose: 12.5 mg/kg/injection, schedule: Q04DX003 (ip), vehicle: saline): 98 % of control | T/C (dose: 25.0 mg/kg/injection, schedule: Q04DX003 (ip), vehicle: saline): 98 % of control | T/C (dose: 50.0 mg/kg/injection, schedule: Q04DX003 (ip), vehicle: saline): 96 % of control

CC1(C)N=C(N)N=C(N)N1c1ccc(Cl)c(C(F)(F)F)c1
T/C (dose: 3.12 mg/kg/injection, schedule: Q01DX009 (ip), vehicle: saline): 108 % of control | T/C [10]: 124 % of control | T/C (dose: 12.5 mg/kg/injection, schedule: Q01DX009 (ip), vehicle: suspension in saline): 155 % of control | T/C (dose: 25.0 mg/kg/injection, schedule: Q01DX009 (ip), vehicle: suspension in saline): 172 % of control

c1ccc2c(-c3ccncc3)c3c(ccc4ccccc43)cc2c1
T/C [11]: 100 % of control | T/C [12]: 98 % of control | T/C [13]: 89 % of control

O=C(OCc1ccccc1)C(=O)c1c(O)n(-c2ccccc2)c2ccccc12
T/C (dose: 100.0 mg/kg/injection, schedule: Q04DX002 (ip), vehicle: saline + alcohol): 99 % of control | T/C (dose: 200.0 mg/kg/injection, schedule: Q04DX002 (ip), vehicle: saline + alcohol): 100 % of control | T/C (dose: 400.0 mg/kg/injection, schedule: Q04DX002 (ip), vehicle: saline + alcohol): 96 % of control

[N-]=[N+]=Nc1ccnc2c(C(F)(F)F)cccc12
T/C [5]: 108 % of control | T/C [6]: 100 % of control | T/C [7]: 92 % of control

CCOc1cc2c(cc1C(C)c1ccc(OC)c(OC)c1)OCO2 (stereo unspecified)
T/C [2]: 100 % of control | T/C [3]: 105 % of control | T/C [4]: 107 % of control

CCN(CC)c1ccc(N=Nc2nc(Cl)c(/C=C3\C(=O)c4ccccc4C3=C(C#N)C#N)s2)c(NC(C)=O)c1
T/C [5]: 96 % of control | T/C [6]: 97 % of control | T/C [7]: 95 % of control

C[CH2][Sn]([CH2]C)([CH2]C)[NH]S(=O)(=O)c1ccc(C)cc1
T/C (dose: 3.12 mg/kg/injection, schedule: Q01DX009 (ip), vehicle: Klucel (hydroxypropylcellulose) (HPC)): 105 % of control

CCCCCn1c(CN2CCCCC2)nc2c1-c1ccccc1C(=O)C2=O
T/C (dose: 50.0 mg/kg/injection, schedule: Q01DX001 (ip), vehicle: saline with Tween-80): 100 % of control | T/C (dose: 100.0 mg/kg/injection, schedule: Q01DX001 (ip), vehicle: saline with Tween-80): 100 % of control | T/C (dose: 200.0 mg/kg/injection, schedule: Q01DX001 (ip), vehicle: saline with Tween-80): 100 % of control

COSc1ccc(OC)cc1
T/C (dose: 100.0 mg/kg/injection, schedule: Q04DX003 (ip), vehicle: saline): 102 % of control | T/C (dose: 200.0 mg/kg/injection, schedule: Q04DX003 (ip), vehicle: saline): 97 % of control

COC(=O)NC1C(=O)CCC(=O)C1C(N)=O (stereo unspecified)
T/C (dose: 7.5 mg/kg/injection, schedule: Q01DX005 (ip), vehicle: saline with Tween-80): 86 % of control | T/C (dose: 15.0 mg/kg/injection, schedule: Q01DX005 (ip), vehicle: saline with Tween-80): 98 % of control

CC(C)C(N)C(=O)NCC(=O)NC(CO)C(=O)NC(CCC(=O)O)C(=O)O (stereo unspecified) (H-VGSE-OH; configuration not given here)
T/C (dose: 10.0 mg/kg/injection, schedule: Q01DX005 (ip), vehicle: water): 100 % of control | T/C (dose: 20.0 mg/kg/injection, schedule: Q01DX005 (ip), vehicle: water): 102 % of control | T/C (dose: 40.0 mg/kg/injection, schedule: Q01DX005 (ip), vehicle: water): 100 % of control | T/C (dose: 80.0 mg/kg/injection, schedule: Q01DX005 (ip), vehicle: water): 97 % of control | T/C (dose: 160.0 mg/kg/injection, schedule: Q01DX005 (ip), vehicle: water): 104 % of control

CCN1c2ccccc2CC(CCN(C(C)C)C(C)C)(C(N)=O)c2ccccc21 (stereo unspecified)
T/C (dose: 25.0 mg/kg/injection, schedule: Q04DX002 (ip), vehicle: saline with Tween-80): 95 % of control | T/C (dose: 50.0 mg/kg/injection, schedule: Q04DX002 (ip), vehicle: saline with Tween-80): 95 % of control | T/C (dose: 100.0 mg/kg/injection, schedule: Q04DX002 (ip), vehicle: saline with Tween-80): 95 % of control

Nc1cc(=O)c2[nH]cnc2[nH]1
T/C [10]: 103 % of control | T/C (dose: 25.0 mg/kg/injection, schedule: Q01DX009 (ip), vehicle: saline): 90 % of control | T/C [11]: 101 % of control | T/C [1]: 98 % of control and 101 % of control | T/C [12]: 106 % of control | T/C (dose: 100.0 mg/kg/injection, schedule: Q01DX009 (ip), vehicle: saline): 103 % of control | T/C [13]: 107 % of control | T/C (dose: 200.0 mg/kg/injection, schedule: Q01DX009 (ip), vehicle: saline): 88 % of control

c1ccc2nc(N3CCCC3)c(N3CCCCCC3)nc2c1
T/C [2]: 100 % of control | T/C [3]: 100 % of control | T/C [4]: 107 % of control

CC1(C)C(=O)NC(=O)c2ccccc21
T/C (dose: 12.5 mg/kg/injection, schedule: Q01DX005 (ip), vehicle: Klucel (hydroxypropylcellulose) (HPC)): 107 % of control | T/C (dose: 25.0 mg/kg/injection, schedule: Q01DX005 (ip), vehicle: Klucel (hydroxypropylcellulose) (HPC)): 107 % of control | T/C [2]: 100 % of control and 102 % of control

Cc1cc2[nH]c(Cl)c(/C=N/Nc3ccccc3[N+](=O)[O-])c2cc1O
T/C [8]: 96 % of control | T/C [9]: 99 % of control | T/C (dose: 200.0 mg/kg/injection, schedule: Q01DX001 (ip), vehicle: Klucel (hydroxypropylcellulose) (HPC)): 90 % of control and 96 % of control

CCCCCCCCCCCCOCC(O)Cn1cnc2c(N)ncnc21 (stereo unspecified)
T/C [2]: 98 % of control | T/C [3]: 94 % of control | T/C [4]: 94 % of control
